Consider six compounds from paper PMC2532997, “Methoxylation enhances stilbene bioactivity in Caenorhabditis elegans” (BMC Pharmacology, 2008).

Series [1] deals with C. elegans fem-1(hc17) sterile adults. The series is described as follows: Adult survival assay of sterile fem-1(hc17) adults on compound-supplemented medium. The format is in vivo, Caenorhabditis elegans. The method, then: For survival assays, young adult (day 0) animals were transferred onto fresh medium supplemented with the test compound at a range of concentrations. The compounds were tested at indicated concentrations in the growth medium (below). C. elegans nematodes are surrounded by a thick collagenous cuticle and are therefore relatively impermeable to environmental compounds. […] Survival was scored every 2–3 days as the ability to move in response to a gentle mechanical stimulus. During the first week of adulthood, C. elegans hermaphrodites are reproductively competent and normally produce 200–300 progeny. Since progeny production would complicate survival analysis, these experiments were performed using fem-1(hc17) animals that are sterile due to a spermatogenesis defect.
Resveratrol and picetannol were obtained from commercial sources (Sigma-Aldrich, Inc. and Calbiochem-Novobiochem Corp., respectively). The methoxylated stilbenes pinostilbene, desoxyrhapontigenin, 3-hydroxy-5,4'-dimethoxystilbene and pterostilbene (Figure 1) were synthesized by partial methylation of trans-resveratrol as previously reported. The methoxylated stilbenes were purified by preparative layer chromatography (Merck Silica gel 60 F254; EMD Chemicals Inc., Gibbstown, NJ) using the developing solvent chloroform:methanol (96:4) with 1% formic acid. […] These stilbenes were identified from their ^1H-NMR spectra (Bruker 400 MHz; Bruker, Billerica, MA). All stilbenes were dissolved in ethanol to 25 mg/mL before use. 5-Fluoro-deoxyuracil (Sigma Chemical Co.) was dissolved to 1 mg/mL in sterile water and stored frozen at -20°C until use. For treating C. elegans adults, each compound was added in a 200 μL volume to the top of a 1-day old bacterial lawn grown on NGM medium to final concentrations as indicated. Compounds were allowed 2 hours to diffuse through the agar medium before animals were added.
For survival analyses, synchronized populations of sterile fem-1(hc17) hermaphrodites were obtained by first transferring several fertile hermaphrodites to a fresh plate at 25°C and allowing them to lay eggs for several hours. The parent hermaphrodites were removed and embryos were allowed to develop into sterile adults at 25°C, which takes approximately 48 hours. On the first day of adulthood, referred to as day 0, sterile adults were transferred onto fresh media supplemented with stilbenes at indicated concentrations, and maintained at 25°C. Adult survival was scored every 2–3 days by the animal's ability to move in response to a gentle mechanical stimulus. Statistical analysis of survival was performed using the JMP software package.

Series [2] deals with cytochrome P450 2E1. Also on record: method as in PMID 16684708. The settings on record: cited from earlier work.
In series [3] the test system is gld-1(q485) germline tumors. In words: Germline tumor growth assay (DAPI-stained tumor area). The format is in vivo, Caenorhabditis elegans. Conditions: for effect on tumor size (in words): 100 μM dose. The method, then:
To assess the effects of methoxylation on antitumor activity in vivo, tumor area was measured in gld-1(q485) adults treated for four days with either resveratrol trimethylether, desoxyrhapontigenin or pterostilbene, which are methoxylated and toxic to adults, or resveratrol, which is hydroxylated and nontoxic. As controls, germline tumor area was also measured in animals treated with carrier only (ethanol) or with 5-fluoro-2'-deoxyuradine (FUDR), a thymidylate synthetase inhibitor that blocks cell proliferation. […] After four days of treatment, animals were collected and germline tumors were visualized by DAPI staining to visualize germcell nuclei. Because the level of DAPI staining was not quantitative between animals, we DAPI signal intensity was not used as a measure of tumor size. Rather, tumor size was directly measured as the area of the DAPI-stained gonad.
Resveratrol and picetannol were obtained from commercial sources (Sigma-Aldrich, Inc. and Calbiochem-Novobiochem Corp., respectively). The methoxylated stilbenes pinostilbene, desoxyrhapontigenin, 3-hydroxy-5,4'-dimethoxystilbene and pterostilbene (Figure 1) were synthesized by partial methylation of trans-resveratrol as previously reported. The methoxylated stilbenes were purified by preparative layer chromatography (Merck Silica gel 60 F254; EMD Chemicals Inc., Gibbstown, NJ) using the developing solvent chloroform:methanol (96:4) with 1% formic acid. The Rf values for pterostilbene, 3-hydroxy-5,4'-dimethoxystilbene, pinostilbene and desoxyrhapontigenin are 0.61, 0.57, 0.28, and 0.20, respectively. These stilbenes were identified from their ^1H-NMR spectra (Bruker 400 MHz; Bruker, Billerica, MA). All stilbenes were dissolved in ethanol to 25 mg/mL before use. 5-Fluoro-deoxyuracil (Sigma Chemical Co.) was dissolved to 1 mg/mL in sterile water and stored frozen at -20°C until use. For treating C. elegans adults, each compound was added in a 200 μL volume to the top of a 1-day old bacterial lawn grown on NGM medium to final concentrations as indicated. Compounds were allowed 2 hours to diffuse through the agar medium before animals were added.
The gld-1(q485) mutation causes a defect in oocyte development that results in growth of germline tumors that fill the somatic gonad, eventually leading to the animal's death. To examine the effects of the stilbenes on gld-1(q485) germline tumors, day 0 adults were placed on stilbene-containing medium in the presence of OP50 bacteria as food source. After 4 days at 20°C, animals were fixed in methanol and germcell nuclei were visualized by staining with DAPI. Images were collected with the entire animal in view using the 4× objective on a Nikon E800 microscope equipped with a Hamamatsu Orca ER CCD camera using OpenLab imaging software. NIH Image J software was used to measure germline tumor growth in treated and untreated animals. Tumor area was measured by outlining the entire DAPI-stained tumor.

Where [4] appears, read: Trial 1, 100 μM in medium, from day 0 of adulthood, 25°C, control 12.16 days.
The mark [5] stands for this setting: Trial 1, 100 μM, treated vs control mean lifespan.
[6] abbreviates: Trial 2, 20 μM, control 11.05 days.
[7] abbreviates: Trial 2, 40 μM, control 11.05 days.
Setting [8] is: Trial 6, 20 μM, control 15.32 days.
Where [9] appears, read: Trial 6, 40 μM, control 15.32 days.
The mark [10] stands for this setting: Trial 6, 100 μM, control 15.32 days.
[11] abbreviates: Trial 3, 100 μM, control 15.37 days.
[12] abbreviates: Trial 3, 200 μM, control 15.37 days.
[13] abbreviates: Trial 4, 20 μM, control 11.26 days.
[14] abbreviates: Trial 4, 40 μM, control 11.26 days.
Setting [15] is: Trial 4, 100 μM, control 11.26 days.

As to `COc1ccc(C=Cc2cc(O)cc(OC)c2)cc1` [3-OH-5,4'-dimethoxystilbene, 3-hydroxy-5,4'-dimethoxystilbene], the “Mean lifespan, Treated” value in series [1] (setting [4]) is reported as 6.34 days; in series [1] (setting [6]) it was 11.05 days; in series [1] (setting [7]) it was 10.52 days; in series [1] (setting [8]) it was 10.38 days; in series [1] (setting [9]), 7.68 days; in series [1] (setting [10]), 6.56 days. Also, the Relative survival is reported as 52% in series [1] (setting [5]); 100% in series [1] (Trial 2, 20 μM); 95% in series [1] (Trial 2, 40 μM); 68% in series [1] (Trial 6, 20 μM); 50% in series [1] (Trial 6, 40 μM); 43% in series [1] (Trial 6, 100 μM).
As for `COc1ccc(/C=C/c2cc(O)cc(O)c2)cc1` [Desoxyrhapontigenin, desoxyrhapontigenin], in series [2], the “inhibition of catalytic activity of cytochrome P450 2E1 (in words)” value is reported as “not inhibitory”. Moreover, the “Mean lifespan, Treated” value stood at 10.64 days in series [1] (setting [4]); 11.31 days in series [1] (setting [11]); 11.61 days in series [1] (setting [12]); 10.2 days in series [1] (setting [13]); 10.38 days in series [1] (setting [14]); 9.44 days in series [1] (setting [15]). Also, the “Mean lifespan, Treated” value in series [1] (setting [8]) was 14.18 days; in series [1] (setting [9]), 15.31 days; in series [1] (setting [10]), 13.63 days. In addition, the Relative survival is listed as 88% in series [1] (setting [5]); 74% in series [1] (Trial 3, 100 μM); 76% in series [1] (Trial 3, 200 μM); 91% in series [1] (Trial 4, 20 μM); 92% in series [1] (Trial 4, 40 μM); 84% in series [1] (Trial 4, 100 μM). The Relative survival in series [1] (Trial 6, 20 μM) worked out at 93%; in series [1] (Trial 6, 40 μM), 100%; in series [1] (Trial 6, 100 μM), 89%. For the same compound, the “effect on tumor size (in words)” value in series [3] (four days treatment) is listed as “consistent reductions in tumor size”.
With `Oc1cc(O)cc(/C=C/c2ccc(O)c(O)c2)c1` [Piceatannol, piceatannol, reference compound], the Relative survival in series [1] (Trial 2, 20 μM) stood at 106%; in series [1] (Trial 2, 40 μM), 105%; in series [1] (Trial 3, 100 μM), 116%; in series [1] (Trial 3, 200 μM) it was 114%; in series [1] (Trial 6, 20 μM) it was 89%; in series [1] (Trial 6, 40 μM), 102%. In series [1] (Trial 6, 100 μM), this compound registered a Relative survival of 108%. Besides, the “Mean lifespan, Treated” value is given as 11.72 days in series [1] (setting [6]); 11.58 days in series [1] (setting [7]); 17.78 days in series [1] (setting [11]); 17.5 days in series [1] (setting [12]); 13.71 days in series [1] (setting [8]); 15.63 days in series [1] (setting [9]). Besides, the “Mean lifespan, Treated” value in series [1] (setting [10]) is reported as 16.6 days.
Consider `COc1cc(O)cc(/C=C/c2ccc(O)cc2)c1` [Pinostilbene, pinostilbene], for which the “inhibition of catalytic activity of cytochrome P450 2E1 (in words)” value in series [2] is recorded as “moderately inhibited”. The “Mean lifespan, Treated” value in series [1] (setting [4]) is reported as 13.6 days; in series [1] (setting [6]), 10.04 days; in series [1] (setting [7]), 11.53 days; in series [1] (setting [11]) it was 16.9 days; in series [1] (setting [12]), 15.23 days; in series [1] (setting [8]) it was 14.24 days. The entries for the “Mean lifespan, Treated” value in series [1] (setting [9]) and in series [1] (setting [10]) were 17.33 days and 16.24 days, respectively. The Relative survival in series [1] (setting [5]) stood at 112%; in series [1] (Trial 2, 20 μM), 91%; in series [1] (Trial 2, 40 μM) it was 104%; in series [1] (Trial 3, 100 μM) it was 110%; in series [1] (Trial 3, 200 μM), 99%; in series [1] (Trial 6, 20 μM) it was 93%. Further, the Relative survival stood at 113% in series [1] (Trial 6, 40 μM) and 106% in series [1] (Trial 6, 100 μM).
Turning to `COc1cc(/C=C/c2ccc(O)cc2)cc(OC)c1` [Pterostilbene, pterostilbene], the “Mean lifespan, Treated” value in series [1] (setting [4]) worked out at 9.55 days; in series [1] (setting [13]) it was 10.43 days; in series [1] (setting [14]) it was 10 days; in series [1] (setting [15]) it was 8.07 days; in series [1] (setting [8]) it was 13.72 days; in series [1] (setting [9]), 14.41 days. Also, the “Mean lifespan, Treated” value in series [1] (setting [10]) is reported as 10.98 days. Moreover, the Relative survival in series [1] (setting [5]) was determined as 79%; in series [1] (Trial 4, 20 μM), 93%; in series [1] (Trial 4, 40 μM) it was 89%; in series [1] (Trial 4, 100 μM) it was 72%; in series [1] (Trial 6, 20 μM), 90%; in series [1] (Trial 6, 40 μM), 94%. For the same compound, in series [1] (Trial 6, 100 μM), the Relative survival is on record as 72%. In series [3] (four days treatment), the “effect on tumor size (in words)” value is “modestly reduced tumor size”.
As to `Oc1ccc(/C=C/c2cc(O)cc(O)c2)cc1` [Resveratrol, resveratrol, reference compound], the “Mean lifespan, Treated” value in series [1] (setting [4]) was 12.18 days; in series [1] (setting [6]) it was 11.85 days; in series [1] (setting [7]), 10.53 days; in series [1] (setting [11]), 16.64 days; in series [1] (setting [12]), 17 days; in series [1] (setting [8]) it was 14.65 days. The “Mean lifespan, Treated” value is on record as 16.17 days in series [1] (setting [9]) and 17.55 days in series [1] (setting [10]). For the same compound, the Relative survival in series [1] (setting [5]) is 100%; in series [1] (Trial 2, 20 μM) it was 107%; in series [1] (Trial 2, 40 μM), 95%; in series [1] (Trial 3, 100 μM) it was 108%; in series [1] (Trial 3, 200 μM) it was 111%; in series [1] (Trial 6, 20 μM), 96%. Also, the Relative survival in series [1] (Trial 6, 40 μM) is listed as 106%; in series [1] (Trial 6, 100 μM), 115%. The “effect on germline tumor size vs untreated” value in series [3] (100 μM in growth medium, four days treatment, FUDR values are single trials) is listed as -4%. Besides, the “effect on tumor area (in words)” value in series [3] (200 and 400 μM dose, three trials) is recorded as “not associated with statistically significant reductions in tumor area”.
